Measurements reported in US8536332B2, “Modulating signal transduction pathways with substituted pyridol [2,3-b] pyrazines” (Aeterna Zentaris GmbH, priority 2007, dated 2013).

What was measured:
Erk2 = biological target: T1, Erk2 (Mus musculus, UniProt P63085); assay: Cell-free kinase assay Erk2-ALPHA; format: biochemical, human; settings: 10 μM ATP
T1 construct: purchased Upstate #14-173
Method: (§1) The inhibitory effect of the compounds of the invention was tested on various human serine/threonine kinases, tyrosine kinases and lipid kinases in enzymatic assays. Recombinant human kinases, for example PI3Kalpha, -beta, -gamma, -delta, Erk2, p38alpha, p38gamma, Jnk1, Jnk2 and others were used, in some cases as full-length kinases, in some cases as truncated fragments—but at least consisting of the functional kinase domains. The commercial kinase proteins (Proqinase, Upstate) were used as recombinant fusion proteins with GST (glutathione S-transferase) tag or His tag. Depending on the substrate type, the different kinase reactions were quantified by suitable ALPHA™ beads (PerkinElmer).
(§2) The kinase assays for PI3K and Erk are described in detail and selected test results are cited below. […] Subsequently, the kinase reaction was stopped by adding the ALPHA bead mix (10 μg/ml, #6760603/PerkinElmer), preincubated with 1 nM GST:Grp1 fusion protein (Upstate) and […] (#C-39B6/Echelon) in 50 mM Hepes, 50 mM NaCl, 50 mM EDTA and 0.1% BSA, and left to stand overnight. • b) Erk2-ALPHA: The test substance, 0.625 ng of Erk2 (#14-173, Upstate), 10 μM ATP and 15 nM biotinylated MBP (myelin basic protein) substrate were incubated on a 384-well Optiplate (Perkin Elmer) in a volume of 15 μl for 1 h in 25 mM Tris, 10 mM MgCl2, 0.1% Tween-20, 100 μM NaVO4, 2 mM DTT at pH 7.5. The kinase reaction was stopped by adding 10 μl of the ALPHA bead mix (10 μg/ml, #6760617/PerkinElmer), pre-incubated with anti-phospho MBP antibody (320 pM, #05-429/Upstate), in 25 mM Tris, 200 mM NaCl, 100 mM EDTA and 0.3% BSA, and left to stand overnight.
(§3) The luminiscence was detected the next morning in a Fusion™ alpha instrument (Perkin Elmer).
(§4) The calculation of % inhibition values per substance concentration was done by means of the following formula from the raw data determined in the Fusion™ alpha:
(§5) The controls were determined 8 fold and the substance samples 2 fold. 0% control contained neither any ATP nor any substrate. The 100% control contained no test substance. The IC50 values were determined with GraphPadPrism.

p38alpha = p38alpha (Homo sapiens, UniProt Q16539); assay: Cell-free kinase assay (ALPHA technology) p38alpha; format: biochemical; settings: 10 μM ATP
Sequence of p38alpha (Q16539 whole entry): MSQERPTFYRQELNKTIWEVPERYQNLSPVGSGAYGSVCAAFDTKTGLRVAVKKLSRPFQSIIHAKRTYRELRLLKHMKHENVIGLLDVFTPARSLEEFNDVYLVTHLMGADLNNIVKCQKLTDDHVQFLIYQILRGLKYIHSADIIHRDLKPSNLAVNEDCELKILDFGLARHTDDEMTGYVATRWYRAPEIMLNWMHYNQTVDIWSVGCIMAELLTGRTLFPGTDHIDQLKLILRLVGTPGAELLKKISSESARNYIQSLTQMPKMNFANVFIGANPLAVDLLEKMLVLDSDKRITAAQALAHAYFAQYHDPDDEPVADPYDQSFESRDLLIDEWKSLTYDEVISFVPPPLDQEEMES
Method: as §1, §2, §3, §4, §5

Jnk1 + Jnk2 = test system: T2, Jnk1 + Jnk2; assay: Cell-free kinase assay (ALPHA technology) Jnk1 + Jnk2; format: biochemical, human; settings: 10 μM ATP
T2 construct: fused on or other part: GST tag or His tag (commercial recombinant fusion proteins from Proqinase or Upstate)
Method: as §1, §2, §3, §4, §5

MDA-MB468 = assay: XTT assay, anti-proliferative activity, MDA-MB468; format: cell-based; settings: Homo sapiens, MDA-MB-468; 45 h incubation
Method: (§6) The principle of this test is based on the intracellular reduction of the tetrazolium dye XTT (sodium 3′-[1-(phenylaminocarbonyl)-3,4-tetrazolium]bis(4-methoxy-6-nitro)benzenesulphonic acid, Sigma) to a formazan dye by mitochondrial dehydrogenases. The dye is formed only by metabolically active cells. Its photometrically measurable intensity is a quantitative indicator for the presence of living cells. The reduction in the dye formation as a result of incubation of the cells with substances serves as a parameter for the anti-proliferative activity.
(§7) The tumour cell lines (ATCC) were seeded in 96-well microtitre plates in a defined cell count (5000 cells/well for Hct116; 10000 cells/well for MDA MB468), and incubated overnight at 37° C., 5% CO2 and 95% air humidity. The test substances were made up as stock solutions (10 mM) in DMSO. […] The cell plates were then incubated for 45 h at 37° C., 5% CO2 and 95% air humidity.
(§8) For the detection reaction, the XTT substrate was mixed with PMS (N-methyldibenzopyrazine methylsulphate, Sigma) and added to the cells, to result in a final concentration of 325 μg of XTT/ml and 2.5 μg PMS/ml. The mixture was then incubated for 3 h at 37° C., 95% air humidity. Subsequently the formazan salt formed by cellular dehydrogenases was quantified at an absorption of 490 nm.
(§9) The evaluation of the % inhibition values was done by means of the following formula from the values for the optical densities measured in each case at 490 nm:
(§10) The controls were determined 8 fold, the substance samples 2 fold. 0% control contained no cells and the 100% control contained no test substance. The EC50 values were determined with GraphPadPrism.

Hct116 = assay: XTT assay, anti-proliferative activity, Hct116; format: cell-based; settings: Homo sapiens, HCT-116; 45 h incubation
Method: as §6, §7, §8, §9, §10

T1 sequence (P63085 whole entry): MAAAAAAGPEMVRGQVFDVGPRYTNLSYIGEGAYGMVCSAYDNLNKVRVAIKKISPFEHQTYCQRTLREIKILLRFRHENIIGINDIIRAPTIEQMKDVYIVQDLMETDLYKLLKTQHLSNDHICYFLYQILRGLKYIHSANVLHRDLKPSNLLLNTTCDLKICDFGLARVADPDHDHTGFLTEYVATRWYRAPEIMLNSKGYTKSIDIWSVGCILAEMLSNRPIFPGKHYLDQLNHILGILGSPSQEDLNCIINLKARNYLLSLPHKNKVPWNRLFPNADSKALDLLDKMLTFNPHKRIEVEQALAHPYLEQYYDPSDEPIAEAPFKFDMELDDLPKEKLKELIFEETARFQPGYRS

| Structure (SMILES) | IC50 (Erk2) [µM] | IC50 (p38alpha) [µM] | IC50 (Jnk1 + Jnk2) [µM] | EC50 (MDA-MB468) [µM] | EC50 (Hct116) [µM] | melting point [°C] |
| --- | --- | --- | --- | --- | --- | --- |
| COc1cc(Nc2cnc3ccc(NC(=S)NC4CCCC4)nc3n2)cc(OC)c1OC [Compound 509, 1-Cyclopentyl-3-[3-(3,4,5-trimethoxy-phenylamino)-pyrido[2,3-b]pyrazin-6-yl]-thiourea] | > 100 | > 100 | > 100 | < 5 | < 5 | 246 |
| COc1cc(-c2ccc3ncc(NC(=O)NC4CCN(C(=O)C(F)(F)F)CC4)nc3n2)ccc1O [Compound 30, 1-[6-(4-Hydroxy-3-methoxy-phenyl)-pyrido[2,3-b]pyrazin-3-yl]-3-[1-(2,2,2-trifluoro-acetyl)-piperidin-4-yl]-urea] | < 10 | < 10 | < 31.6 | – | – | 236 to 239 |
| CCNC(=S)Nc1ccc2ncc(-c3cc(Cl)c(O)c(Cl)c3)nc2n1 [Compound 138, 1-[3-(3,5-Dichloro-4-hydroxy-phenyl)-pyrido[2,3-b]pyrazin-6-yl]-3-ethyl-thiourea] | – | – | – | < 10 | < 10 | – |
| COc1cc(-c2ccc3ncc(NC(=O)NC4CCCC4)nc3n2)ccc1O [Compound 20, 1-Cyclopentyl-3-[6-(4-hydroxy-3-methoxy-phenyl)-pyrido[2,3-b]pyrazin-3-yl]-urea] | > 100 | > 100 | > 100 | – | – | 222 to 225 |
| CNC(=O)Nc1cnc2ccc(-c3ccc(OC)c(OC)c3)nc2n1 [Compound 566, 1-[6-(3,4-Dimethoxy-phenyl)-pyrido[2,3-b]pyrazin-3-yl]-3-methyl-urea] | > 100 | > 31.6 | > 100 | < 5 | < 5 | 253 to 255 |
| CCNC(=O)Nc1cnc2ccc(-c3ccc(O)c(Cl)c3)nc2n1 [Compound 637, 1-[6-(3-Chloro-4-hydroxy-phenyl)-pyrido[2,3-b]pyrazin-3-yl]-3-ethyl-urea] | > 100 | > 100 | > 100 | < 10 | < 10 | > 270 |
| CCNC(=O)Nc1ccc2ncc(-c3cccs3)nc2n1 [Compound 152, 1-Ethyl-3-(3-thiophen-2-yl-pyrido[2,3-b]pyrazin-6-yl)-urea] | – | – | – | < 10 | < 10 | 227 to 228 |
| CC(C)(C)NC(=O)Nc1cnc2ccc(-c3cc(Cl)c(O)c(Cl)c3)nc2n1 [Compound 553, 1-tert-Butyl-3-[6-(3,5-dichloro-4-hydroxy-phenyl)-pyrido[2,3-b]pyrazin-3-yl]-urea] | > 100 | > 100 | < 100 | < 5 | < 5 | 251 to 253 |
| CCNC(=S)Nc1ccc2ncc(-c3cnn(C)c3)nc2n1 [Compound 113, 1-Ethyl-3-[3-(1-methyl-1H-pyrazol-4-yl)-pyrido[2,3-b]pyrazin-6-yl]-thiourea] | – | – | – | < 5 | < 5 | 242 |
| O=C(Nc1cnc2ccc(-c3cc(Cl)c(O)c(Cl)c3)nc2n1)NC1CCCC1 [Compound 563, 1-Cyclopentyl-3-[6-(3,5-dichloro-4-hydroxy-phenyl)-pyrido[2,3-b]pyrazin-3-yl]-urea] | > 100 | – | – | < 1 | < 1 | 262 to 264 |
| COc1cc(-c2ccc3ncc(NC(=O)Nc4cccs4)nc3n2)ccc1O [Compound 614, 1-[6-(4-Hydroxy-3-methoxy-phenyl)-pyrido[2,3-b]pyrazin-3-yl]-3-thiophen-2-yl-urea] | < 31.6 | < 10 | < 31.6 | < 5 | < 5 | 216 to 219 |
| COc1cc(-c2ccc3ncc(NC(=O)NCc4ccccc4)nc3n2)ccc1O [Compound 29, 1-Benzyl-3-[6-(4-hydroxy-3-methoxy-phenyl)-pyrido[2,3-b]pyrazin-3-yl]-urea] | – | – | – | – | – | 229 to 231 |

Further lines, results first:

| IC50 (Erk2) [µM] | IC50 (p38alpha) [µM] | IC50 (Jnk1 + Jnk2) [µM] | EC50 (MDA-MB468) [µM] | EC50 (Hct116) [µM] | melting point [°C] | Structure (SMILES) |
| --- | --- | --- | --- | --- | --- | --- |
| – | – | – | < 5 | < 5 | 230 | CCNC(=S)Nc1ccc2ncc(-c3cc(OC)c(OC)c(OC)c3)nc2n1 [Compound 134, 1-Ethyl-3-[3-(3,4,5-trimethoxy-phenyl)-pyrido[2,3-b]pyrazin-6-yl]-thiourea] |
| > 100 | > 100 | > 31.6 | < 5 | < 5 | 272 | CCNC(=S)Nc1ccc2ncc(Nc3ccc(OC)c(O)c3)nc2n1 [Compound 147, 1-Ethyl-3-[3-(3-hydroxy-4-methoxy-phenylamino)-pyrido[2,3-b]pyrazin-6-yl]-thiourea] |
| – | – | – | < 5 | < 5 | 269 | CCNC(=S)Nc1ccc2ncc(Nc3ccc(O)c(OC)c3)nc2n1 [Compound 150, 1-Ethyl-3-[3-(4-hydroxy-3-methoxy-phenylamino)-pyrido[2,3-b]pyrazin-6-yl]-thiourea] |
| – | – | – | < 5 | < 5 | 278 | CCNC(=S)Nc1ccc2ncc(Nc3ccc(C)cc3)nc2n1 [Compound 126, 1-Ethyl-3-(3-p-tolylamino-pyrido[2,3-b]pyrazin-6-yl)-thiourea] |
| > 100 | < 50 | > 100 | < 1 | < 5 | 279 to 280 | CNC(=S)Nc1cnc2ccc(-c3ccc(O)c(OC)c3)nc2n1 [Compound 526, 1-[6-(4-Hydroxy-3-methoxy-phenyl)-pyrido[2,3-b]pyrazin-3-yl]-3-methyl-thiourea] |
| – | – | – | < 5 | < 5 | 216 to 219 | CCNC(=O)Nc1ccc2ncc(Nc3cccc(OC)c3)nc2n1 [Compound 89, 1-Ethyl-3-[3-(3-methoxy-phenylamino)-pyrido[2,3-b]pyrazin-6-yl]-urea] |
| < 31.6 | < 50 | > 100 | < 1 | < 1 | 268 | CCNC(=S)Nc1ccc2ncc(Nc3cc(OC)c(OC)c(OC)c3)nc2n1 [Compound 160, 1-Ethyl-3-[3-(3,4,5-trimethoxy-phenylamino)-pyrido[2,3-b]pyrazin-6-yl]-thiourea] |
| – | – | – | < 5 | < 10 | 285 | CCNC(=S)Nc1ccc2ncc(Nc3ccccc3)nc2n1 [Compound 148, 1-Ethyl-3-(3-phenylamino-pyrido[2,3-b]pyrazin-6-yl)-thiourea] |
| – | – | – | < 5 | < 5 | – | CCNC(=S)Nc1ccc2ncc(-c3ccc(N)c(OC)c3)nc2n1 [Compound 140, 1-[3-(4-Amino-3-methoxy-phenyl)-pyrido[2,3-b]pyrazin-6-yl]-3-ethyl-thiourea] |
| – | – | – | – | – | 166 | CCNC(=S)Nc1cnc2ccc(Nc3ccc(OC)c(O)c3)nc2n1 [Compound 205, 1-Ethyl-3-[6-(3-hydroxy-4-methoxy-phenylamino)-pyrido[2,3-b]pyrazin-3-yl]-thiourea] |
